Assay [1] deals with HFF. Description: HFF inhibition (selectivity). The assay is classed as cell-based, human.
Assay [2] relates to HUVEC. Description: HUVEC inhibition (selectivity). It is filed as cell-based, human.
Assay [3] has as its target hMetAP1 (Homo sapiens, UniProt P53582). Description: MetAP1 enzyme assay. The assay is classed as biochemical.
For assay [4], the target named is hMetAP2 (Homo sapiens, UniProt P50579). Put plainly: MetAP2 enzyme assay. The assay is classed as biochemical.
Where [5] appears, read: Co2+ as metal ion, Table 1, read-out: hMetAP1 CO^2+ IC50.
The mark [6] stands for this setting: Mn2+ as metal ion, Table 1, read-out: hMetAP1 Mn^2+ IC50.
[7] abbreviates: Co2+ as metal ion, Table 1, read-out: hMetAP2 CO^2+ IC50.
The mark [8] stands for this setting: Mn2+ as metal ion, Table 1, read-out: hMetAP2 Mn^2+ IC50.
Where [9] appears, read: Co2+ as metal ion, Table 2, read-out: hMetAP2 Co^2+ IC50.
Setting [10] is: Mn2+ as metal ion, Table 2, read-out: hMetAP2 Mn^2+ IC50.
Setting [11] is: Co2+ as metal ion, Table 2, read-out: hMetAP1 Co^2+ IC50.
Where [12] appears, read: Mn2+ as metal ion, Table 2, read-out: hMetAP1 Mn^2+ IC50.

In general, IC50 refers to the concentration that gives 50% inhibition.

Like-named read-outs stand apart in the source and are kept apart here. Where only a bound is given, the exact number is not on record here.

Chain of hMetAP2 (P50579 whole entry): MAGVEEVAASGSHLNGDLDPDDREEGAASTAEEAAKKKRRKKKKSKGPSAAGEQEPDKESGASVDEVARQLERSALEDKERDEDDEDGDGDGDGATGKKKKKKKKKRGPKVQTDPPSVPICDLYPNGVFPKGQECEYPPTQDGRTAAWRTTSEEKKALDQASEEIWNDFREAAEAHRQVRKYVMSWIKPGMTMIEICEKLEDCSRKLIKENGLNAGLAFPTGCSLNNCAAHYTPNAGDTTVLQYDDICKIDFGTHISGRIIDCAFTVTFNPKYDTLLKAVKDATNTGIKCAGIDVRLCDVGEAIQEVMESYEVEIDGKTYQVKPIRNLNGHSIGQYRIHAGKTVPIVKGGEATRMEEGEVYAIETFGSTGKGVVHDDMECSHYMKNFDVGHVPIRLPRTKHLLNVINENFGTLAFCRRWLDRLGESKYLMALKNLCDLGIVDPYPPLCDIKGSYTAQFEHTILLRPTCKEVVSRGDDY

Regarding `C=CCOc1ccc(Cl)c2cccnc12` [Entry 3a], the IC50 in assay [1] (Homo sapiens, Table 1) was greater than 50 µM; in assay [2] (Homo sapiens, Table 1), greater than 50 µM.
As for `Oc1c(CN2CCCCC2)cc(Cl)c2cccnc12` [Entry 2b], the IC50 in assay [3] (setting [5]) and in assay [3] (setting [6]) was greater than 50 µM in each case.
For the molecule `CN1CCN(Cc2cc(Cl)c3cccnc3c2O)CC1` [Entry 2e], the IC50 in assay [1] (Table 1) was found to be 15 µM; in assay [2] (Table 1), 9.6 µM.
Turning to `Oc1c(C(c2ccccc2)N2CCOCC2)cc(Cl)c2cccnc12` (stereo not drawn) [Entry 2f], the IC50 in assay [1] (Homo sapiens, Table 1) is 19.2 µM; in assay [4] (setting [7]), 8 µM; in assay [4] (setting [8]), 0.33 µM; in assay [2] (Homo sapiens, Table 1), 8.6 µM; in assay [3] (setting [5]), 14 µM; in assay [3] (setting [6]) it was greater than 50 µM.
As to `OCCOc1ccc(Cl)c2cccnc12` [Entry 3b], the IC50 in assay [1] (Homo sapiens, Table 1) is greater than 50 µM; in assay [4], greater than 50 µM; in assay [4] (read-out: hMetAP2 CO^2+ IC50, Co2+ as metal ion, Table 1), greater than 50 µM; in assay [2] (Homo sapiens, Table 1), greater than 50 µM; in assay [3], greater than 50 µM; in assay [3] (read-out: hMetAP1 CO^2+ IC50, Co2+ as metal ion, Table 1) it was greater than 50 µM.
As to `Oc1c(CN2CCOCC2)ccc2cccnc12` [Entry 2c], the IC50 in assay [1] (Homo sapiens, Table 1) was 9.8 µM; in assay [4] (setting [7]), greater than 50 µM; in assay [4] (setting [8]), 15.2 µM; in assay [2] (Homo sapiens, Table 1), 33.3 µM; in assay [3] (setting [5]), greater than 50 µM; in assay [3] (setting [6]) it was greater than 50 µM.
Consider `O=C(Nc1cc(Cl)ccc1Cl)Oc1c(Cl)cc(Cl)c2cccnc12` [Entry 4b], for which the IC50 in assay [1] (Table 2) was 3 µM; in assay [4] (setting [9]), greater than 50 µM; in assay [4] (setting [10]) it was 0.9 µM; in assay [2] (Table 2), 0.11 µM; in assay [3] (setting [11]), greater than 50 µM; in assay [3] (setting [12]), greater than 50 µM.
For `O=C(Nc1cc(Cl)c(Cl)cc1Cl)Oc1c(Cl)cc(Cl)c2cccnc12` [Entry 4a], the IC50 was 4.9 µM in assay [1] (Table 2); greater than 50 µM in assay [4] (setting [9]); 2.6 µM in assay [4] (setting [10]); 1.3 µM in assay [2] (Table 2); greater than 50 µM in assay [3] (setting [11]); greater than 50 µM in assay [3] (setting [12]).
In the case of `O=C(Nc1cc(Cl)ccc1Cl)Oc1ccc(Cl)c2cccnc12` [Entry 4c], the IC50 is 8 µM in assay [1] (Table 2); 2.2 µM in assay [4] (setting [9]); 0.07 µM in assay [4] (setting [10]); 1.2 µM in assay [2] (Table 2); greater than 50 µM in assay [3] (setting [11]); 12.6 µM in assay [3] (setting [12]).
On to `OCCN(CCO)Cc1cc(Cl)c2cccnc2c1O` [Entry 2a], for which the IC50 amounted to 0.8 µM in assay [1] (Homo sapiens, Table 1); 28 µM in assay [4] (setting [8]); 10.7 µM in assay [2] (Homo sapiens, Table 1).
